Legend:
[1] = system: GR induced transactivation (tyrosine amino transferase expression); experiment: Glucocorticosteroid transactivation assay (tyrosine amino transferase expression in primary hepatocytes); format: cell-based; settings: human liver hepatocytes; for inhibition of dexamethasone induced expression of tyrosine amino transferase (antagonism of GR induced transactivation): in presence of 50 nM dexamethasone, FIG. 2b
From the text: GR modulators of the present invention that inhibit GR induced transactivation can be identified by measuring the amount of tyrosine amino transferase expressed in the presence of the GR induced transactivation in a cell model (human liver hepatocytes).
In this example, dexamethasone induces the expression of tyrosine amino transferase by transactivation. Typically, glucocorticosteroids, such as the synthetic dexamethasone, bind the ligand-binding domain of the glucocorticoid receptor (GR) to promote nuclear translocation. In the nucleus, the DNA binding domain directs dimerization on imperfect DNA palindromes known as simple glucocorticoid response elements (GREs) to transcriptionally activate genes including tyrosine amino transferase (TAT).
Primary hepatocytes were distributed in 96-well collagen coated plates and equilibrated in media (without hydrocortisone) for 6 hours. Compounds were tested at 6 concentrations (semi-log dilutions) and prepared in 0.2% DMSO in the presence of 50 nM dexamethasone or media. Hepatocytes in the presence of compound were incubated for 24 hours, washed in PBS and lysed for 30 minutes (30 μl lysis volume). The TAT enzyme assay was initiated by the addition of 170 μl TAT assay buffer (substrate) for 1 hour. The reaction was terminated by the addition of 30 μl 10N KOH and the 96-well plates incubated for a further 30 min […] to allow formation of the aromatic aldehyde product, p-hydroxybenzaldehyde. Absorbance was read at 340 nm on a spectrophotometer.
Reagents: TAT assay buffer: 0.2 M KH2PO4 pH7.4 containing 5.4 mM L-tyrosine, 10.8 mM α-ketoglutaric acid and 0.06 mM Pyridoxal-5-phosphate monohydrate.
Dexamethasone was used to increase the expression of tyrosine amino transferase in human liver hepatocytes.

[2] = system: GR induced transrepression (LPS activated TNFα release); experiment: Glucocorticosteroid transrepression assay (LPS activated TNFα release in peripheral blood mononuclear cells); format: cell-based; settings: human PBMC, 10 ng/ml LPS; for blockade of dexamethasone induced repression of LPS activated TNFα release (antagonism of transrepression): in presence of 50 nM dexamethasone, FIG. 1b
Description: Using a cell-based model (human peripheral blood mononuclear cells), dexamethasone was administered to the cells and the release of TNFα was measured. After addition of the GR modulator of the present invention, the release of TNFα was again measured and compared to the amount released in the absence of the GR modulator.
Human peripheral blood mononuclear cells were isolated and distributed in 96-well plates at a density of 2×10^5 cells/well in medium. Compounds were tested at 7 concentrations (semi-log dilutions) and prepared at 5× final assay concentration in 1.5% DMSO. Following a preincubation of 30 minutes with compounds the plates are then incubated in presence of 50 nM dexamethasone or media for 30 minutes. TNFα release was activated by overnight incubation with 10 ng/ml LPS. Human TNFα was measured using chemiluminescence detected on the SECTOR® Imager 6000 (Mesoscale). Dexamethasone was used to inhibit LPS activated TNFα release via the glucocorticoid receptor. […] In some cases, CORT-108297 was added in the absence of dexamethasone to determine if CORT-108297 inhibited LPS activated TNFα release.

Row | SMILES | concentration giving maximal increase in TAT expression (transactivation) ([1]; compound alone, FIG. 2a) | blockade of dexamethasone induced repression of LPS activated TNFα release (antagonism of transrepression) [2] | inhibition of dexamethasone induced expression of tyrosine amino transferase (antagonism of GR induced transactivation) [1] | inhibition of LPS activated TNFα release, compound alone (transrepression agonism), in words ([2]; FIG. 1a) | maximal inhibition of LPS activated TNFα release, compound alone ([2]; at micromolar concentrations, no dexamethasone, FIG. 1a) [%] | expression of tyrosine amino transferase (increase), compound alone ([1]; all concentrations assayed, no dexamethasone, FIG. 2a) [%]
1 | C[C@@H]1C[C@H]2[C@@H]3CCC4=CC(=O)C=C[C@]4(C)[C@@]3(F)[C@@H](O)C[C@]2(C)[C@@]1(O)C(=O)CO [dexamethasone, reference compound] | about 100 nM |  |  |  |  | 
2 | CC#C[C@]1(O)CC[C@H]2[C@@H]3CCC4=CC(=O)CCC4=C3[C@@H](c3ccc(N(C)C)cc3)C[C@@]21C [mifepristone, reference compound] |  | completely blocks this effect | inhibit the increased expression of tyrosine amino transferase |  |  | 
3 | CCOC[C@]12Cc3cnn(-c4ccc(F)cc4)c3C=C1CCN(S(=O)(=O)c1ccc(C(F)(F)F)cc1)C2 [CORT-108297] |  | only shows partial blockade at higher concentrations | full potent antagonist of GR induced transactivation | weak partial agonist of GR induced transrepression | 48 | ≤ 0

From patent US8829024B2, “Combination steroid and glucocorticoid receptor antagonist therapy” (Corcept Therapeutics, Inc., priority 2011, dated 2014)
